According to article PMC10746280, “Bacterial efflux pump modulators prevent bacterial growth in macrophages and under broth conditions that mimic the host environment” (mBio, 2023):

What was measured:
[1] = tested on: S. Typhimurium SL1344 (sifB::gfp) in RAW 264.7 macrophages; assay: SAFIRE macrophage assay: intracellular bacterial load (GFP signal within macrophages); type: cell-based, Salmonella enterica serotype Typhimurium; details: 'Toxic' given instead of a score
From the text: (§1) In SAFIRE, we used MATLAB software to count the number of macrophages that remain adherent and retain the red fluorescence of MitoTracker, an indicator of voltage across the mitochondrial inner membrane. MATLAB then calculates the signal from bacteria (green fluorescent protein [GFP]) that overlaps with macrophages, as defined by MitoTracker, to estimate bacterial load. […] For example, we observed that the 6-trifluoropyrimidin-2-yl group on the right-hand side of EPM35 is apparently toxic to macrophages. Non-toxic analogs that reduced bacterial load by at least 60% at 5 µM and 25 µM in SAFIRE, as compared with DMSO, progressed and were evaluated in SAFIRE across eight or more concentrations, ranging from 0.001 µM to 50 µM (n = 2). […] Each of the top 13 analogs had at least an eightfold increase in potency and were not toxic for macrophages at 50 µM in the SAFIRE assay (Fig. 1C).
(§2) As previously described ([18]), RAW 264.7 macrophages (between passages 1 and 6) were grown in complete Dulbecco’s modified Eagle’s medium (DMEM) to approximately 70% to 90% confluence, scraped, washed, resuspended, diluted to 5 × 10^4 in 100 µL, and seeded in black, 96-well, glass-bottomed plates (Brooks Life Sciences catalog number MGB096-1-2-LG-L) at 37°C with 5% CO2. Twenty-four hours later, bacteria grown overnight in LB were diluted into 50 µL phosphate buffered saline (PBS) and added to a final concentration of 1 × 10^7 S. Typhimurium SL1344 (sifB::gfp) per milliliter ([78]) for an approximate multiplicity of infection of 30 bacteria per macrophage cell. Forty-five minutes after bacterial addition, gentamicin (Sigma catalog number G1264) was added to a final concentration of 40 µg/mL to inhibit the growth of remaining extracellular bacteria. Two hours after infection, gentamicin-containing medium was removed and replaced with 200 µL fresh DMEM with compound or DMSO (Sigma catalog number 276855) to the stated final concentrations. At 17.5 h after infection, PBS containing MitoTracker Red CMXRos (Life Technologies catalog number M7512), a vital dye for mitochondrial electric potential, was added to a final concentration of 100 nM. At 18 h after infection, 16% paraformaldehyde was added to a final concentration of 4% and incubated at room temperature for 15 min. Cells were washed twice with PBS and stained for 20 min with 1 µM 4′,6-diamidino-2-phenylindole (DAPI), a vital dye for double-stranded DNA, and stored in 90% glycerol in PBS until imaging. Samples were imaged in six fields of view per well using a semiautomated Yokogawa CellVoyager CV1000 confocal scanner system with a 20×, 0.75-numerical aperture (NA) objective. A MATLAB algorithm calculated bacterial accumulation (GFP fluorescence) within macrophages, as defined by DAPI and MitoTracker Red. GFP^+ macrophage area was defined as the number of GFP-positive pixels per macrophage divided by the total number of pixels per macrophage, averaged across all macrophages in the field ([34]).

RAW 264.7 macrophages = assay: SAFIRE macrophage assay: host toxicity (adherent macrophage count, morphology); type: cell-based
From the text: as §1, §2

Row | SMILES | 5 uM Avg Antibacterial Score [1] | 25 uM Avg Antibacterial Score [1] | 5 uM Avg Cell # Score (RAW 264.7 macrophages) | 25 uM Avg Cell # Score (RAW 264.7 macrophages)
1 | NC(=O)[C@H]1CC[C@@H](NCC(O)COc2ccc(Cl)c(Cl)c2)C1 (some centres unmarked) [CU066] | 103 | 100 | 91 | 86
2 | NC(=O)N1CCN(CC(O)COc2ccc(Cl)c(Cl)c2)CC1 (centres unmarked) [CU067] | 104 | 101 | 79 | 88
3 | O=C(NC1CCN(CC(O)COc2ccc(Cl)c(Cl)c2)C1)c1ccccc1 (centres unmarked) [CU068] | 20 | Toxic | 80 | 49
4 | CC(C)C(=O)NC1CCN(CC(O)COc2ccc(Cl)c(Cl)c2)C1 (centres unmarked) [CU069] | 95 | 52 | 96 | 94
5 | OC(CNCCNc1nccc(C(F)(F)F)n1)COc1ccc(Cl)c(Cl)c1 (centres unmarked) [CU070] | Toxic | Toxic | 49 | 65
6 | CC(=O)N(CCNc1nccc(C(F)(F)F)n1)CC(O)COc1ccc(Cl)c(Cl)c1 (centres unmarked) [CU071] | 85 | Toxic | 62 | 56
7 | CC(C)N(CCNc1nccc(C(F)(F)F)n1)CC(O)COc1ccc(Cl)c(Cl)c1 (centres unmarked) [CU072] | Toxic | Toxic | 62 | 94
8 | O=C(O)C1CCN(CC(O)COc2ccc(Cl)c(Cl)c2)CC1 (centres unmarked) [CU073] | 102 | 101 | 100 | 140
9 | CCc1ccc(OCC(O)CN2CCC(Nc3nccc(C(F)(F)F)n3)CC2)cc1 (centres unmarked) [CU074] | 10 | Toxic | 71 | 114
10 | COC(=O)c1ccc(OCC(O)CN2CCC(Nc3nccc(C(F)(F)F)n3)CC2)cc1 (centres unmarked) [CU075] | 68 | Toxic | 86 | 56
11 | CC(=O)Nc1ccc(OCC(O)CN2CCC(Nc3nccc(C(F)(F)F)n3)CC2)cc1 (centres unmarked) [CU076] | 102 | 103 | 79 | 86
12 | OC(COc1ccc(-c2ccccc2)cc1)CN1CCC(Nc2nccc(C(F)(F)F)n2)CC1 (centres unmarked) [CU077] | 11 | Toxic | 35 | 114
13 | OC(COc1ccc2ccccc2c1)CN1CCC(Nc2nccc(C(F)(F)F)n2)CC1 (centres unmarked) [CU078] | 7.5 | Toxic | 87 | 133
14 | OC(COc1cccc2ccccc12)CN1CCC(Nc2nccc(C(F)(F)F)n2)CC1 (centres unmarked) [CU079] | 6.41 | Toxic | 86 | 89
15 | OC(COc1ccc2c(c1)OCO2)CN1CCC(Nc2nccc(C(F)(F)F)n2)CC1 (centres unmarked) [CU080] | 96 | 7.4 | 86 | 91
16 | COc1cccc(OCC(O)CN2CCC(Nc3nccc(C(F)(F)F)n3)CC2)c1 (centres unmarked) [CU081] | 102 | 17 | 94 | 93
17 | N#Cc1cccc(OCC(O)CN2CCC(Nc3nccc(C(F)(F)F)n3)CC2)c1 (centres unmarked) [CU082] | 100 | 19 | 89 | 85
18 | OC(COc1ccccc1)CN1CCC(Nc2nccc(C(F)(F)F)n2)C1 (centres unmarked) [CU083] | 100 | 32 | 89 | 95

Row | SMILES | 5 uM Avg Antibacterial Score [1] | 25 uM Avg Antibacterial Score [1] | 5 uM Avg Cell # Score (RAW 264.7 macrophages) | 25 uM Avg Cell # Score (RAW 264.7 macrophages)
19 | OC(COc1ccccc1Cl)CN1CCC(Nc2nccc(C(F)(F)F)n2)C1 (centres unmarked) [CU084] | 93 | Toxic | 96 | 46
20 | OC(COc1cccc(Cl)c1)CN1CCC(Nc2nccc(C(F)(F)F)n2)C1 (centres unmarked) [CU085] | 47 | Toxic | 92 | 33
21 | OC(COc1ccc(Cl)cc1)CN1CCC(Nc2nccc(C(F)(F)F)n2)C1 (centres unmarked) [CU086] | 71 | Toxic | 89 | 27
22 | OC(COc1ccc(Cl)cc1Cl)CN1CCC(Nc2nccc(C(F)(F)F)n2)C1 (centres unmarked) [CU087] | 36 | Toxic | 98 | 78
23 | OC(COc1cc(Cl)cc(Cl)c1)CN1CCC(Nc2nccc(C(F)(F)F)n2)C1 (centres unmarked) [CU088] | 22 | Toxic | 101 | 98
24 | OC(COc1ccc(Cl)c(Cl)c1)CN1CCC(Nc2nccc(C(F)(F)F)n2)C1 (centres unmarked) [CU089] | 30 | Toxic | 101 | 91
25 | CCOC(=O)c1cccc(OCC(O)CN2CCC(Nc3nccc(C(F)(F)F)n3)C2)c1 (centres unmarked) [CU090] | 70 | Toxic | 91 | 48
26 | COC(=O)c1ccc(OCC(O)CN2CCC(Nc3nccc(C(F)(F)F)n3)C2)cc1 (centres unmarked) [CU091] | 97 | 9.52 | 89 | 95
27 | OC(COc1cccc(C(F)(F)F)c1)CN1CCC(Nc2nccc(C(F)(F)F)n2)C1 (centres unmarked) [CU092] | 41 | Toxic | 86 | 72
28 | N#Cc1ccccc1OCC(O)CN1CCC(Nc2nccc(C(F)(F)F)n2)C1 (centres unmarked) [CU093] | 102 | 58 | 93 | 79
29 | N#Cc1ccc(OCC(O)CN2CCC(Nc3nccc(C(F)(F)F)n3)C2)cc1 (centres unmarked) [CU094] | 105 | 41 | 91 | 71
30 | COc1ccccc1OCC(O)CN1CCC(Nc2nccc(C(F)(F)F)n2)C1 (centres unmarked) [CU095] | 100 | 43 | 88 | 83
31 | COc1ccc(OCC(O)CN2CCC(Nc3nccc(C(F)(F)F)n3)C2)cc1 (centres unmarked) [CU096] | 103 | 29 | 74 | 92
32 | OC(COc1ccc(F)cc1)CN1CCC(Nc2nccc(C(F)(F)F)n2)C1 (centres unmarked) [CU097] | 100 | 6.44 | 95 | 95
33 | OC(COc1ccc(F)cc1F)CN1CCC(Nc2nccc(C(F)(F)F)n2)C1 (centres unmarked) [CU098] | 92 | 12 | 89 | 88
34 | OC(COc1ccc2c(c1)OCO2)CN1CCC(Nc2nccc(C(F)(F)F)n2)C1 (centres unmarked) [CU099] | 104 | 25 | 77 | 102
35 | CC(=O)Nc1cccc(OCC(O)CN2CCC(Nc3nccc(C(F)(F)F)n3)C2)c1 (centres unmarked) [CU100] | 105 | 110 | 80 | 96
